Laboratory results reported in ChEMBL document CHEMBL1201862, “PubChem BioAssay data set” (2004).
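Step 1: Grow cells in 96-well plates. Step 2: Expose to compound for 48 hours at 5 concentrations. Step 3: Interpolate endpoints linearly; if unreached, use highest concentration. Here, GI50 denotes the concentration required for 50% inhibition of growth.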 Activity calls are given as the source filed them. Cut-off read from the data, not from the text of the source: active = GI50 up to about 1.1 µM and inactive = higher.

Tests used:
Assay in all cases: growth of human tumour cells (NCI), 48 h
[1] = system: CAKI-1
[2] = system: SK-MEL-2
[3] = system: LOX IMVI
[4] = system: SF-539
[5] = system: HCT-116
[6] = system: KM-20L2
[7] = system: 786-0
[8] = system: OVCAR-8
[9] = system: SF-268
[10] = system: Malme-3M
[11] = system: OVCAR-5
[12] = system: HOP-92
[13] = system: DMS-273
[14] = system: DLD-1
[15] = system: HOP-62
[16] = system: OVCAR-3
[17] = system: HL-60
[18] = system: MOLT-4
[19] = system: U-251
[20] = system: KM12
[21] = system: NCI-H226
[22] = system: HCC 2998
[23] = system: SK-MEL-28
[24] = system: SK-OV-3
[25] = system: SF-295
[26] = system: SNB-75
[27] = system: SNB-19
[28] = system: ACHN
[29] = system: HT-29
[30] = system: TK-10
[31] = system: A498
[32] = system: NCI-H522
[33] = system: LXFL 529
[34] = system: UACC-62
[35] = system: DMS-114
[36] = system: A549
[37] = system: EKVX
[38] = system: UACC-257
[39] = system: NCI-H460
[40] = system: CCRF-CEM
[41] = system: M14
[42] = system: SN12C
[43] = system: SNB-78
[44] = system: K562
[45] = system: RPMI-8226
[46] = system: SW-620
[47] = system: HCT-15
[48] = system: COLO 205
[49] = system: HOP-18
[50] = system: NCI-H23
[51] = system: OVCAR-4
[52] = system: M19-MEL
[53] = system: UO-31
[54] = system: IGROV-1
[55] = system: SK-MEL-5
[56] = system: SR
[57] = system: RXF 393
[58] = system: PC-3
[59] = system: MDA-N
[60] = system: BT-549
[61] = system: DU-145
[62] = system: MCF7
[63] = system: NCI/ADR-RES
[64] = system: MDA-MB-435
[65] = system: T47D
[66] = system: MDA-MB-231
[67] = system: Hs-578T

Measured: GI50

CC(C)(C)C1C=C(Sc2ccccc2)C(=O)O1 (stereo unspecified)
43.3 µM: [47]
inactive: [1] 45.6 µM | [2] > 100 µM | [3] 37.6 µM | [4] 44.1 µM | [5] 40.1 µM | [6] 39.1 µM | [7] 68.9 µM | [8] 37.3 µM | [9] 37.2 µM | [10] 97.5 µM | [11] 34.2 µM | [12] 29.2 µM | [13] 40.7 µM | [14] 42.5 µM | [15] 45.4 µM | [16] 42.8 µM | [17] 24.9 µM | [18] 30.3 µM | [19] 54 µM | [20] 40.6 µM | [21] 54.7 µM | [22] 58.9 µM | [23] 83.6 µM | [24] 58.9 µM | [25] 35.2 µM | [26] 22.8 µM | [27] 57.9 µM | [28] 32.1 µM | [29] 49.8 µM | [30] 60.5 µM | [31] 41.9 µM | [32] 32.7 µM | [33] 34.8 µM | [34] 36.7 µM | [35] 32.8 µM | [36] 33.3 µM | [37] 47 µM | [38] 31.8 µM | [39] 40.4 µM | [40] 37.4 µM | [41] 62.1 µM | [42] 36.2 µM | [43] 63 µM | [44] 49.3 µM | [45] 36 µM | [46] 80.5 µM | [48] 26.9 µM | [49] 75.9 µM | [50] 33.5 µM | [51] 63.8 µM | [52] 48.9 µM | [53] 33.7 µM | [54] 48.9 µM

Oc1ccc(Br)cc1/C=N/c1ccc(/N=C/c2cc(Br)ccc2O)cc1
inactive: [1] > 100 µM | [2] > 100 µM | [3] > 100 µM | [4] > 100 µM | [5] > 100 µM | [6] > 100 µM | [7] > 100 µM | [8] > 100 µM | [9] > 100 µM | [10] > 100 µM | [11] > 100 µM | [12] > 100 µM | [55] > 100 µM | [14] > 100 µM | [17] > 100 µM | [18] > 100 µM | [19] > 100 µM | [20] > 100 µM | [21] > 100 µM | [22] > 100 µM | [24] > 100 µM | [25] > 100 µM | [26] > 100 µM | [27] > 100 µM | [28] > 100 µM | [29] > 100 µM | [56] > 100 µM | [30] > 100 µM | [31] > 100 µM | [57] > 100 µM | [35] > 100 µM | [36] > 100 µM | [37] > 100 µM | [38] > 100 µM | [39] > 100 µM | [40] > 100 µM | [41] > 100 µM | [42] > 100 µM | [43] > 100 µM | [44] > 100 µM | [45] > 100 µM | [46] > 100 µM | [50] > 100 µM | [51] > 100 µM | [53] > 100 µM | [54] > 100 µM
> 100 µM: [47]

O=C1C(c2ccccc2)=C(c2ccccc2)C(c2ccccc2)/C1=C1\C(=O)C(c2ccccc2)=C(c2ccccc2)C1c1ccccc1 (stereo unspecified)
inactive: [1] > 100 µM | [2] > 100 µM | [3] > 100 µM | [4] > 100 µM | [5] > 100 µM | [6] > 100 µM | [7] > 100 µM | [8] > 100 µM | [9] > 100 µM | [10] > 100 µM | [11] > 100 µM | [12] > 100 µM | [55] > 100 µM | [13] > 100 µM | [14] > 100 µM | [15] > 100 µM | [16] > 100 µM | [17] > 100 µM | [18] > 100 µM | [19] > 100 µM | [20] > 100 µM | [21] > 100 µM | [22] > 100 µM | [23] > 100 µM | [24] > 100 µM | [25] > 100 µM | [26] > 100 µM | [28] > 100 µM | [29] > 100 µM | [56] > 100 µM | [30] > 100 µM | [31] > 100 µM | [32] > 100 µM | [57] > 100 µM | [33] > 100 µM | [34] > 100 µM | [35] > 100 µM | [36] > 100 µM | [37] > 100 µM | [38] > 100 µM | [39] > 100 µM | [41] 41.9 µM | [42] > 100 µM | [43] > 100 µM | [45] > 100 µM | [46] > 100 µM | [48] > 100 µM | [49] > 100 µM | [50] > 100 µM | [51] > 100 µM | [52] > 100 µM | [53] > 100 µM | [54] > 100 µM
> 100 µM: [47]

CN(C)C(=S)/N=c1\ss/c(=N\C(=S)N(C)C)n1-c1cccc(Cl)c1
> 100 µM: [47]
inactive: [1] > 100 µM | [2] > 100 µM | [3] > 100 µM | [4] > 100 µM | [5] > 100 µM | [6] > 100 µM | [7] > 100 µM | [8] > 100 µM | [9] > 100 µM | [10] > 100 µM | [11] > 100 µM | [55] > 100 µM | [13] > 100 µM | [15] > 100 µM | [16] > 100 µM | [17] > 100 µM | [18] > 100 µM | [19] > 100 µM | [20] > 100 µM | [21] > 100 µM | [22] > 100 µM | [23] > 100 µM | [24] > 10 µM | [25] > 100 µM | [26] 36.6 µM | [27] > 100 µM | [28] > 100 µM | [29] > 100 µM | [56] > 100 µM | [30] > 100 µM | [31] > 100 µM | [32] > 100 µM | [57] 79.6 µM | [34] > 100 µM | [35] > 100 µM | [36] > 100 µM | [37] > 100 µM | [38] > 100 µM | [39] > 100 µM | [40] > 100 µM | [41] > 100 µM | [42] > 100 µM | [43] > 100 µM | [44] > 100 µM | [45] > 100 µM | [46] > 100 µM | [48] > 100 µM | [50] > 100 µM | [51] > 100 µM | [53] > 100 µM | [54] > 100 µM

O=[N+]([O-])C(/C(Cl)=C(\Cl)Br)=C(/Cl)SCc1ccccc1
2.9 µM: [47]
active: [17] 0.336 µM | [18] 0.778 µM | [40] 0.507 µM
inactive: [58] 3.84 µM | [1] 1.8 µM | [2] 3.8 µM | [3] 1.86 µM | [4] 8.83 µM | [5] 2.48 µM | [7] 2.08 µM | [8] 2.26 µM | [9] 2.85 µM | [59] 1.85 µM | [10] 6.31 µM | [11] 12.5 µM | [12] 2.31 µM | [55] 2.9 µM | [15] 15.1 µM | [16] 2.74 µM | [19] 6.46 µM | [20] 14.4 µM | [21] 14.4 µM | [22] 11.2 µM | [60] 2.56 µM | [23] 2.31 µM | [61] 13 µM | [62] 2.95 µM | [24] 19.6 µM | [25] 16.9 µM | [63] 2.77 µM | [26] 3.26 µM | [27] 17.8 µM | [28] 2.97 µM | [29] 2.12 µM | [56] 1.44 µM | [30] 4.5 µM | [31] 8.04 µM | [32] 1.89 µM | [57] 2.35 µM | [64] 1.87 µM | [34] 3.2 µM | [36] 16.3 µM | [37] 6.67 µM | [38] 6.21 µM | [39] 12.8 µM | [65] 3.68 µM | [66] 2.94 µM | [41] 2.77 µM | [42] 3.31 µM | [44] 1.27 µM | [45] 1.72 µM | [46] 2.03 µM | [67] 5.11 µM | [48] 1.98 µM | [50] 5.71 µM | [51] 3.87 µM | [53] 2.52 µM | [54] 5.9 µM
